Legend:
Assay type in all cases: functional
SF-268 = experiment: Anticancer activity against human SF268 cells assessed as growth at 100 uM after 48 hrs by SRB protein assay relative to control; settings: SF-268, 48 h, read-out: Activity
NCI-H460 = experiment: Anticancer activity against human NCL-H460 cells assessed as growth at 100 uM after 48 hrs by SRB protein assay relative to control; settings: NCI-H460, 48 h, read-out: Activity
MCF7 = experiment: Anticancer activity against human MCF7 cells assessed as growth at 100 uM after 48 hrs by SRB protein assay relative to control; settings: MCF7, 48 h, read-out: Activity

SMILES | growth at 100 µM (SF-268) [%] | growth at 100 µM (NCI-H460) [%] | growth at 100 µM (MCF7) [%]
Clc1ncnc2c1ncn2Cc1ccccc1Cn1cnc2c(Cl)ncnc21 | 78 | 58 | 78
Clc1ncnc2c1ncn2Cc1cccc(Cn2cnc3c(Cl)ncnc32)c1 | 90 | 65 | 77
Nc1ncnc2c1ncn2Cc1cccc(Cn2cnc3c(N)ncnc32)c1 | 108 | 96 | 109
Clc1ncnc2c1ncn2Cc1ccc(Cn2cnc3c(Cl)ncnc32)cc1 | 86 | 95 | 101
Nc1ncnc2c1ncn2Cc1ccc(Cn2cnc3c(N)ncnc32)cc1 | 96 | 111 | 112
Clc1ncnc2c1ncn2Cc1ccc(-c2ccc(Cn3cnc4c(Cl)ncnc43)cc2)cc1 | 95 | 45 | 67
Nc1ncnc2c1ncn2Cc1ccc(-c2ccc(Cn3cnc4c(N)ncnc43)cc2)cc1 | 50 | 98 | 86
Nc1ncnc2c1ncn2Cc1ccccc1Cn1cnc2c(N)ncnc21 | 99 | 84 | 99

From ChEMBL document CHEMBL1143809, “New bis-N9-(methylphenylmethyl)purine derivatives: synthesis and antitumor activity” (2007)
